Data on six molecules can be found in US11866518B2, “Bicyclic peptide ligands specific for TSLP” (BicycleTx Limited, priority 2020, dated 2024).

TSLP, sequence (Q969D9 29-159): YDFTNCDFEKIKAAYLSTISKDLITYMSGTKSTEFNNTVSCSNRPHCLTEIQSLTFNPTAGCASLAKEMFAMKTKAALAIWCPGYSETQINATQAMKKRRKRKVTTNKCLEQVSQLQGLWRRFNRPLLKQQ

The first experiment concerns the target TSLP (Homo sapiens, UniProt Q969D9). The experiment is described as follows: Human peripheral blood mononuclear cell assay (TSLP-induced CCL17/TARC). It is filed as cell-based. Details: host or cells: added to human PBMCs from healthy donors. Particulars: human PBMCs; 10 μM peptide; 50 pM TSLP; 24 hours; read-out: CCL17 % Inhibition @ 10 μM, 50 pM TSLP. The procedure:
Human peripheral blood mononuclear cells (PMBCs) were obtained from heparinized whole blood (healthy donors) by density gradient centrifugation using Lymphoprep (StemCell Technologies, Vancouver, BC) according to the manufacturers instructions. The PBMCs were washed twice with PBS containing 2 mM EDTA and 2% fetal calf serum (FCS) and reconstituted in RPMI containing 10% FCS and 2% PenStrep at a final concentration of 3 million cells/mL. This cell suspension (100 μL) was aliquoted into the wells of a 96-well flat bottom tissue culture plate. 5 μL of bicycle peptide or vehicle (0.1% DMSO in complete medium) was then added and mixed with 5 μL of TSLPvehicle (complete medium). […] The plate was incubated for 30 minutes are rt. 10 μL of this mixture was added to cells and the plate was incubated for 24 hours in a 10% CO2, humidified incubator at 37° C. The plate was centrifuged at 300×g for 5 min and the collected supernatants frozen at −20° C. for subsequent CCL17/TARC analysis.
CCL17/TARC was determined by MSD (MesoScale Discovery, Maryland, USA) according to the manufacturer's instructions.
The inhibition is the change of the read-out against control, counted positive when it falls. As for `CSCC[C@H](NC(=O)[C@H](CC(=O)O)NC(=O)CNC(=O)[C@H](CC(=O)O)NC(=O)[C@H](C)NC(=O)[C@@H]1CSCCC(=O)N2CN3CN(C2)C(=O)CCSC[C@H](NC(=O)[C@H](CC(=O)O)NC(=O)[C@H](CCC(=O)O)NC(=O)[C@H](CC(C)C)NC(=O)[C@H](Cc2c[nH]c4ccccc24)NC(=O)[C@H](CCC(N)=O)NC(=O)[C@@H](NC(=O)[C@H](C)N)CSCCC3=O)C(=O)N[C@@H](Cc2c[nH]c3ccccc23)C(=O)N[C@@H](CCCNC(=N)N)C(=O)NCC(=O)N[C@@H](Cc2ccccc2)C(=O)N1)C(=O)N[C@@H](CC(C)C)C(N)=O` [Example 42, A-(SEQ ID NO: 38)-ADGDML], the inhibition at 10 µM is less than 20%.

The experiment is the same for the next values; noted with them: read-out: CCL17 % Inhibition @ 10 μM, […] TSLP.
Take `CSCC[C@H](NC(=O)[C@H](CC(=O)O)NC(=O)CNC(=O)[C@H](CC(=O)O)NC(=O)[C@H](C)NC(=O)[C@@H]1CSCCC(=O)N2CN3CN(C2)C(=O)CCSC[C@H](NC(=O)[C@H](CC(=O)O)NC(=O)[C@H](CCC(=O)O)NC(=O)[C@H](CC(C)C)NC(=O)[C@H](Cc2c[nH]c4ccccc24)NC(=O)[C@H](CCC(N)=O)NC(=O)[C@@H](NC(=O)[C@H](C)N)CSCCC3=O)C(=O)N[C@@H](Cc2c[nH]c3ccccc23)C(=O)N[C@@H](CCCNC(=N)N)C(=O)NCC(=O)N[C@@H](Cc2ccccc2)C(=O)N1)C(=O)N[C@@H](CC(C)C)C(N)=O` [Example 42, A-(SEQ ID NO: 38)-ADGDML]: the inhibition at 10 µM is 47%.

Consider `CC(=O)N[C@H]1CSCCC(=O)N2CN3CN(C2)C(=O)CCSC[C@H](NC(=O)[C@H](CC(=O)O)NC(=O)[C@H](CCC(=O)O)NC(=O)[C@H](CC(C)(C)C)NC(=O)[C@H](Cc2c[nH]c4ccccc24)NC(=O)[C@H](CCC(N)=O)NC1=O)C(=O)N[C@@H](Cc1c[nH]c2ccccc12)C(=O)N[C@@H](CCCNC(=N)N)C(=O)NCC(=O)N[C@@H](Cc1ccccc1)C(=O)N[C@H](C(N)=O)CSCCC3=O` [Example 44, Ac-(SEQ ID NO: 39)], for which the inhibition at 10 µM came to 52%.

On to `CC(C)C[C@@H]1NC(=O)[C@H](Cc2c[nH]c3ccccc23)NC(=O)[C@H](CCC(N)=O)NC(=O)[C@@H](NC(=O)[C@H](CCC(=O)O)NC(=O)[C@H](C)NC(=O)[C@H](CO)NC(=O)[C@H](CC(=O)O)NC(=O)[C@@H](NC(=O)CN)[C@@H](C)O)CSCCC(=O)N2CN3CN(C2)C(=O)CCSC[C@H](NC(=O)[C@H](CC(=O)O)NC(=O)[C@H](CCC(=O)O)NC1=O)C(=O)N[C@@H](Cc1c[nH]c2ccccc12)C(=O)N[C@@H](CCCNC(=N)N)C(=O)NCC(=O)N[C@@H](Cc1ccccc1)C(=O)N[C@H](C(=O)N[C@@H](C)C(N)=O)CSCCC3=O` [Example 45, GTDSAE-(SEQ ID NO: 38)-A], for which the inhibition at 10 µM was found to be 0%.

In the case of `CC(=O)N[C@H]1CSCCC(=O)N2CN3CN(C2)C(=O)CCSC[C@H](NC(=O)[C@H](CC(=O)O)NC(=O)[C@H](CCC(=O)O)NC(=O)[C@H](CC(C)C)NC(=O)[C@H](Cc2c[nH]c4ccccc24)NC(=O)[C@H](CCC(N)=O)NC1=O)C(=O)N[C@@H](Cc1c[nH]c2ccccc12)C(=O)N[C@@H](CCCNC(=N)N)C(=O)NCC(=O)N[C@@H](Cc1cccc2ccccc12)C(=O)N[C@H](C(N)=O)CSCCC3=O` [Example 47, Ac-(SEQ ID NO: 41)], the inhibition at 10 µM was -7%.

Regarding `CC(=O)N[C@H]1CSCCC(=O)N2CN3CN(C2)C(=O)CCSC[C@H](NC(=O)[C@H](CC(=O)O)NC(=O)[C@H](CCC(=O)O)NC(=O)[C@H](CC(C)C)NC(=O)[C@H](Cc2c[nH]c4ccccc24)NC(=O)[C@H](CCC(N)=O)NC1=O)C(=O)N[C@@H](Cc1c[nH]c2ccccc12)C(=O)N[C@@H](CCCNC(=N)N)C(=O)NCC(=O)N[C@@H](Cc1ccc2ccccc2c1)C(=O)N[C@H](C(N)=O)CSCCC3=O` [Example 50, Ac-(SEQ ID NO: 42)], the inhibition at 10 µM is 33%.

In the case of `CSCC[C@H](NC(=O)[C@@H](N)[C@@H](C)O)C(=O)N[C@@H](CCC(=O)O)C(=O)N[C@@H](Cc1ccc(O)cc1)C(=O)N[C@@H](CCCNC(=N)N)C(=O)N[C@@H](CC(=O)O)C(=O)N[C@H]1CSCCC(=O)N2CN3CN(C2)C(=O)CCSC[C@H](NC(=O)[C@H](CC(=O)O)NC(=O)[C@H](CCC(=O)O)NC(=O)[C@H](CC(C)C)NC(=O)[C@H](Cc2c[nH]c4ccccc24)NC(=O)[C@H](CCC(N)=O)NC1=O)C(=O)N[C@@H](Cc1c[nH]c2ccccc12)C(=O)N[C@@H](CCCNC(=N)N)C(=O)NCC(=O)N[C@@H](Cc1ccccc1)C(=O)N[C@H](C(=O)N[C@@H](C)C(N)=O)CSCCC3=O` [Example 56, TMEYRD-(SEQ ID NO: 38)-A], the inhibition at 10 µM was 40%.
